In brackets after ≈: the same amount, converted by molar mass. Where two headings read alike, the source gives them in different places.
Columns and labels:
ANT(2″)-Ia [1] = target: T1, ANT(2″)-Ia (Klebsiella pneumoniae, UniProt P0AE05); experiment: ANT; type: biochemical; settings: for fold less potent than β-thujaplicinol: relative to β-thujaplicinol; for fold increase in activity over the other synthetic α-hydroxytropolones: relative to other synthetic α-hydroxytropolones
[2] = system: hyper-permeable, ANT(2″)-Ia-expressing strain of E. coli BW25113; experiment: Checkerboard analysis with gentamicin against ANT; type: cell-based; settings: for synergy with gentamicin (in words): ANT(2″)-Ia-expressing E. coli
ANT(2″)-Ia [3] = target: T1, ANT(2″)-Ia; settings: cited from earlier work
[4] = system: E. coli BW25113 wild type; experiment: Gentamicin MIC against wild type E. coli; type: cell-based; settings: Escherichia coli, BW25113, read-out: gentamicin MIC
[5] = system: isogenic E. coli mutant with the gene encoding aminoglycoside phosphotransferase (APH[2″]-Id); experiment: Checkerboard analysis with gentamicin against APH; type: cell-based; settings: ANT(2″)-Ia-negative, APH(2″)-Id-positive bacteria
[6] = purified enzyme, 96 well format

T1 sequence (P0AE05 whole entry): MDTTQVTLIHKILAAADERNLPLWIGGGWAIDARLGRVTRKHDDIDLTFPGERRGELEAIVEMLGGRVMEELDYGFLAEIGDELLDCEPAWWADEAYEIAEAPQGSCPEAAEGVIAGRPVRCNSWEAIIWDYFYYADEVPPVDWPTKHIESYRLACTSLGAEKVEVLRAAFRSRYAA

SMILES | ANT(2″)-Ia inhibitory activity (in words) (ANT(2″)-Ia [1]; [6]) | synergy with gentamicin (in words) [2] | further results
CC(=O)c1cc(O)c(=O)c(O)cc1C [3e] | significant inhibitory potency | Synergy | fold less potent than β-thujaplicinol (ANT(2″)-Ia [1]): 5–10 fold; gentamicin concentration at which no growth is seen ([2]; 50 μM of compound, lowest concentration of gentamicin tested): ≤ 2 µg/mL
Cc1cc(O)c(=O)c(O)cc1-c1ccc([N+](=O)[O-])cc1 [3g] | significant inhibitory potency | no synergistic activity | fold less potent than β-thujaplicinol (ANT(2″)-Ia [1]): 5–10 fold
Cc1cc(O)c(=O)c(O)cc1-c1ccc(-c2ccccc2)cc1 [3h] | – | no synergistic activity | –
Cc1cc(O)c(=O)c(O)cc1-c1ccccc1 [3i] | comparable potency to nitroaryl-containing 3g | – | –
Cc1cc(O)c(=O)c(O)cc1-c1cccc2ccccc12 [3j] | no activity at all | – | –
Cc1cc(O)c(=O)c(O)cc1-c1ccc2ccccc2c1 [3k] | no activity at all | – | –
Cc1cc(O)c(=O)c(O)cc1-c1ccc(Br)cc1 [3l] | – | no synergistic activity | fold increase in activity over the other synthetic α-hydroxytropolones (ANT(2″)-Ia [1]): ~4 fold
Cc1cc(O)c(=O)c(O)cc1-c1ccc(Cl)cc1 [3m] | – | no synergistic activity | fold increase in activity over the other synthetic α-hydroxytropolones (ANT(2″)-Ia [1]): ~4 fold
Cc1cc(O)c(=O)c(O)cc1-c1ccc(C(F)(F)F)cc1 [3n] | no activity at all | Synergy | –
Cc1cc(O)c(=O)c(O)cc1C(=O)C(C)C [3o] | appreciable inhibitory activity, which was comparable to 3e | – | –
Cc1cc(O)c(=O)c(O)cc1C(=O)C1CCCCC1 [3p] | inactivity | – | –
Cc1cc(O)c(=O)c(O)cc1C(=O)CC1CCCCC1 [3q] | inactivity | – | –
COc1cc(C)c(C(C)=O)cc(O)c1=O [4e] | – | – | ANT(2″)-Ia inhibitory activity (in words) (ANT(2″)-Ia [1]): inactive
COc1cc(C)c(-c2ccc([N+](=O)[O-])cc2)cc(O)c1=O [4g] | – | – | ANT(2″)-Ia inhibitory activity (in words) (ANT(2″)-Ia [1]): inactive
O=c1cccccc1O [Tropolone] | – | – | ANT(2″)-Ia inhibition (in words) (ANT(2″)-Ia [3]): no activity
CNC(C)C1CCC(N)C(OC2C(N)CC(N)C(OC3OCC(C)(O)C(NC)C3O)C2O)O1 (centres unmarked) [gentamicin, reference compound] | – | – | MIC ([2]; Escherichia coli, BW25113, read-out: gentamicin MIC): 64 µg/mL; MIC [4]: 0.25 µg/mL (≈ 0.523 µM)
O=c1c(O)ccccc1O [α-hydroxytropolone] | – | – | ANT(2″)-Ia inhibition (in words) (ANT(2″)-Ia [3]): capable of inhibiting
CC(C)c1ccc(O)c(=O)c(O)c1 [β-thujaplicinol] | – | – | antibacterial effect of compound (in words) ([2]; 50 μM of compound): all of the bacterial cells have died; synergy with gentamicin (in words) [5]: no synergy; ANT(2″)-Ia inhibition (in words) (ANT(2″)-Ia [3]): capable of inhibiting
